{"source": "ChEMBL document CHEMBL3352628", "about": "“Stereochemical modification of geminal dialkyl substituents on pantothenamides alters antimicrobial activity” (Bioorg Med Chem Lett, 2014)", "key": {"Plasmodium falciparum [1]": {"test_system": "Plasmodium falciparum", "assay": "Antimicrobial activity against chloroquine-sensitive Plasmodium falciparum 3D7 ring stage parasite assessed as reduction in parasite proliferation after 96 hrs in presence of 1 uM pantothenate by SYBR Safe DNA gel staining based assay", "assay_type": "functional, organism-based", "details": "3D7, 96 h"}, "HFF": {"test_system": "HFF", "assay": "Cytotoxicity against HFF cells at 1 to 100 uM after 48 hrs by SYBR Safe DNA gel staining based assay", "assay_type": "cell-based", "details": "human"}, "Staphylococcus aureus [2]": {"test_system": "Staphylococcus aureus", "assay": "Antimicrobial activity against oxacillin-susceptible Staphylococcus aureus ATCC 29213 at 500 uM after 18 hrs by microdilution broth method", "assay_type": "functional, organism-based"}, "Staphylococcus aureus [3]": {"test_system": "Staphylococcus aureus", "assay": "Antimicrobial activity against oxacillin-resistant Staphylococcus aureus 43300 at 500 uM after 18 hrs by microdilution broth method", "assay_type": "functional, organism-based"}, "Plasmodium falciparum [4]": {"test_system": "Plasmodium falciparum", "assay": "Antimicrobial activity against chloroquine-sensitive Plasmodium falciparum 3D7 ring stage parasite assessed as reduction in parasite proliferation after 96 hrs in presence of 50 uM pantothenate by SYBR Safe DNA gel staining based assay", "assay_type": "functional, organism-based", "details": "3D7, 96 h"}, "Staphylococcus aureus [5]": {"test_system": "Staphylococcus aureus", "assay": "Antimicrobial activity against oxacillin-susceptible Staphylococcus aureus ATCC 29213 after 18 hrs by microdilution broth method", "assay_type": "functional", "details": "ATCC 29213, 18 h"}, "Staphylococcus aureus [6]": {"test_system": "Staphylococcus aureus", "assay": "Antimicrobial activity against oxacillin-resistant Staphylococcus aureus 43300 after 18 hrs by microdilution broth method", "assay_type": "functional", "details": "Staphylococcus aureus, 43300, 18 h"}}, "note": "The source made the active and inactive calls. No cut-off for these calls is given here.", "data": [{"smiles": "C=CC[C@](C)(CO)[C@@H](O)C(=O)NCCC(=O)NCCCCC", "values": [{"measurement": "IC50", "setting": "Plasmodium falciparum [1]", "value": 31, "unit": "µM"}, {"measurement": "Activity", "setting": "HFF", "value": "Non-toxic"}]}, {"smiles": "C=CC[C@@](C)(CO)[C@@H](O)C(=O)NCCC(=O)NCCCCC", "values": [{"measurement": "Activity", "setting": "Staphylococcus aureus [2]", "value": "inactive"}, {"measurement": "Activity", "setting": "Staphylococcus aureus [3]", "value": "inactive"}, {"measurement": "IC50", "setting": "Plasmodium falciparum [1]", "value": 2.4, "unit": "µM"}, {"measurement": "IC50", "setting": "Plasmodium falciparum [4]", "value": 13, "unit": "µM"}, {"measurement": "Activity", "setting": "HFF", "value": "Non-toxic"}, {"measurement": "MIC", "setting": "Staphylococcus aureus [5]", "value": 3.2, "unit": "µM"}, {"measurement": "MIC", "setting": "Staphylococcus aureus [6]", "value": 3.2, "unit": "µM"}]}]}
